Measured values: patent US20230190697A1, “METHODS FOR TREATING VIRAL INFECTIONS WITH NAFAMOSTAT” (priority 2020, published 2023)
Several values for one entry are separate records, joined by “and”; a condition that tells them apart may be missing. Equal values may be shown once.

How the values were obtained:
hERG K+ channel = hERG K+ channel (Homo sapiens, UniProt Q12809); experiment: cell-based; details: human, 50 µM
Protocol: Effects of nafamostat in an hERG assay: In an in vitro non-GLP screening study, effects of nafamostat on the hERG K^+ channel currents were evaluated in voltage-clamped human embryonic kidney cells at room temperature. […] A full ICH-Compliant hERG study and in vivo cardiovascular safety pharmacology study is be performed as part of the IND-enabling program.

SD rats [1] = experiment: Single dose oral tolerability in SD rats (dose range-finding); format: in vivo
Description: Oral Tolerability in Rats: The single dose tolerability to oral nafamostat was studied in SD rats in a non-GLP pilot dose range-finding study. […] All other animals survived to 7 days and had no abnormalities at necropsy.

SD rats [2] = experiment: Pilot repeat-dose oral study in male SD rats (5 days); format: in vivo; details: 1000 mg/kg/day PO for 5 days
Protocol: A pilot, non-GLP repeat-dose study was performed in which nafamostat mesylate (500 or 1000 mg/kg/day PO) was administered to 6 male SD rats per group for 5 days. […] One animal had petechiae on the lower third of the colon. […] Death in 2 of the animals followed seizure activity at about 1 h post-dose.

[3] = Pharmacokinetics of oral nafamostat mesylate solution in healthy male and female subjects; format: in vivo, human; details: human, oral, 200 mg dose level, individual subjects
Protocol: Part 1: Single Ascending Dose Study. Male and female subjects aged 18 - 70 were administered a single dose of 50 mg nafamostat mesylate on day 1, 100 mg nafamostat mesylate on day 3 or 4, and 200 mg nafamostat mesylate on day 5, 6, or 7. Nafamostat mesylate was administered in the form of an oral solution. […]
Part 2: Multiple Ascending Dose Study. Subjects were divided into 2 cohorts. Cohort 1 received an oral solution of 100 mg/mL nafamostat mesylate twice a day for 5 days with pharmacokinetic evaluations on each day. […] Safety evaluations continued for 48 hours after the last dose. After review and evidence of safety, Cohort 2 received an oral solution of 200 mg/mL nafamostat mesylate twice a day for 5 days with pharmacokinetic evaluations on each day. […] Safety evaluations continued for 48 hours after the last dose.
Part 3: Single Fixed Dose Administered Twice Daily for 5 Days. Six subjects, different than the subjects from Parts 1 and 2, received an oral solution of 200 mg/mL nafamostat mesylate twice a day for 5 days. Blood samples were obtained at pre-dose (0 hr.) and at 0.5, 1, 2, 3, 4, 6, and 8 hours after the first dose on Day 1 and again after the first dose on Day 5. […]
Oral solutions received by each subject were prepared by dissolving nafamostat mesylate in about 100 mL of EMETROL®/water and provided at a volume to deliver the indicated dosage. There was no placebo formulation.
Nafamostat pharmacokinetics was evaluated at the 200 mg dose levels.

hERG K+ channel, sequence (Q12809 whole entry): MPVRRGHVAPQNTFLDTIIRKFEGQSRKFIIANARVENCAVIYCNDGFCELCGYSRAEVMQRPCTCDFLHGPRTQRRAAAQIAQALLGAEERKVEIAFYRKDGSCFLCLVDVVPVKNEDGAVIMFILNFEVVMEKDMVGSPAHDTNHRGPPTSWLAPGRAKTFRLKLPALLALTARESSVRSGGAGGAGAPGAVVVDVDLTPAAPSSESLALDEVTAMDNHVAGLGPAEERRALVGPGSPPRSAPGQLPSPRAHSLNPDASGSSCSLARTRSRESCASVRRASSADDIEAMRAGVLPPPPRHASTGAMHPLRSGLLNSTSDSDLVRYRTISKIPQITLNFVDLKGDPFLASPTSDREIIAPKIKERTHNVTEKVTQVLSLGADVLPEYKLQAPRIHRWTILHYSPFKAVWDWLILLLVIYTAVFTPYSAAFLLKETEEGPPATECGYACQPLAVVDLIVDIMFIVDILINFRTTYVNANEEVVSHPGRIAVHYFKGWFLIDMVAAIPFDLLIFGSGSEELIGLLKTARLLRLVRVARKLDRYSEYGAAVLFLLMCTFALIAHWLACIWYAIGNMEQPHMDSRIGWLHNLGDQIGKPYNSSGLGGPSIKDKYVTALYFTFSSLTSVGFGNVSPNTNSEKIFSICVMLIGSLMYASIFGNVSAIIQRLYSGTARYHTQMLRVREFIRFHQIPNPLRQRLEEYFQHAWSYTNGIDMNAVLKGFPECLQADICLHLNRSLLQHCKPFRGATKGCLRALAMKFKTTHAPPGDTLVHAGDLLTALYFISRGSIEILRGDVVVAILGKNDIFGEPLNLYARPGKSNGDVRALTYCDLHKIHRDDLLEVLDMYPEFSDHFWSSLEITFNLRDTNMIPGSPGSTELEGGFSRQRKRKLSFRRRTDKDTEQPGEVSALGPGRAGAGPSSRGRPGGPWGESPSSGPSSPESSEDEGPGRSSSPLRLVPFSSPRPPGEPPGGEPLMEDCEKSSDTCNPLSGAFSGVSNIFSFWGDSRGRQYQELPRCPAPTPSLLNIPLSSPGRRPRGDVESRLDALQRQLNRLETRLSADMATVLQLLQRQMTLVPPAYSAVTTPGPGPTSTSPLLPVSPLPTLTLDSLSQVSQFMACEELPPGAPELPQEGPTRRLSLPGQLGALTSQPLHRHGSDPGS

CS(=O)(=O)O.CS(=O)(=O)O.N=C(N)Nc1ccc(C(=O)Oc2ccc3cc(C(=N)N)ccc3c2)cc1 [nafamostat mesylate, 6-amidino-2-naphthyl p-guanidinobenzoate dimethanesulfonate]
inhibition of hERG potassium currents (hERG K+ channel): approximately 24% | mortality (SD rats [1]; 1000 mg/kg female dose group, stomach perforations at necropsy indicate dosing misadministration): 2 of 3 animals died at 48 hours | single dose oral tolerability (SD rats [1]; both, SD, rat, in vivo, po, 7 days): ≥ 1000 mg/kg | necropsy finding in animals that died (SD rats [2]): fluid filled stomach at necropsy | mortality (SD rats [2]; 6 male SD rats): Four of 6 animals receiving 1000 mg/kg/day died by day 5 | concentration at 8 h ([3]; both sexes, blood, Day 1, 8 h post-dose): < 0.1 ng/mL | concentration at 12 h ([3]; both sexes, blood, Day 1, 12 h post-dose): < 0.1 ng/mL | NM ([3]; Day 1, 0 h post-dose): < 0.100 ng/mL | NM ([3]; Day 1, 0.5 h post-dose): < 0.100 ng/mL | NM ([3]; Day 1, 1 h post-dose, listed as NM, dimethanesulfonate): < 0.100 ng/mL (4×) and 0.125 ng/mL | NM ([3]; Day 1, 2 h post-dose): < 0.100 ng/mL | NM ([3]; Day 1, 3 h post-dose): < 0.100 ng/mL | NM ([3]; Day 1, 4 h post-dose): < 0.100 ng/mL | NM ([3]; Day 1, 6 h post-dose): < 0.100 ng/mL | NM ([3]; Day 1, 8 h post-dose): < 0.100 ng/mL | NM ([3]; Day 1, 12 h post-dose): < 0.100 ng/mL | NM ([3]; Day 2, 0 h post-dose): < 0.100 ng/mL | NM ([3]; Day 2, 0.5 h post-dose): < 0.100 ng/mL | NM ([3]; Day 2, 1 h post-dose): < 0.100 ng/mL | NM ([3]; Day 2, 2 h post-dose): < 0.100 ng/mL | NM ([3]; Day 2, 3 h post-dose): < 0.100 ng/mL | NM ([3]; Day 2, 4 h post-dose): < 0.100 ng/mL | NM ([3]; Day 2, 6 h post-dose): < 0.100 ng/mL | NM ([3]; Day 2, 8 h post-dose): < 0.100 ng/mL | NM ([3]; Day 2, 12 h post-dose): < 0.100 ng/mL | NM ([3]; Day 2, 16 h post-dose): < 0.100 ng/mL | NM ([3]; Day 3, 0 h post-dose): < 0.100 ng/mL | NM ([3]; Day 3, 4 h post-dose, listed as NM, dimethanesulfonate): < 0.100 ng/mL (2×) and 0.101 ng/mL | NM ([3]; Day 3, 8 h post-dose): < 0.100 ng/mL | NM ([3]; Day 3, 12 h post-dose): < 0.100 ng/mL | NM ([3]; Day 3, 16 h post-dose): < 0.100 ng/mL | NM ([3]; Day 4, 0 h post-dose, listed as NM, dimethanesulfonate): < 0.100 ng/mL | NM ([3]; Day 4, 4 h post-dose): < 0.100 ng/mL
